Tests used:
Type in all cases: cell-based
[1] = test system: Leishmania mexicana promastigotes; test: Half-inhibitory concentration on parasites, modified MTT method
Experimental: Parasites were treated with different concentrations of the synthesized compounds for 48 hours to determine their cytotoxic effect. A dose dependent growth inhibition was observed after this time.
(§1) Promastigotes of Leishmania mexicana Bel 21 strain were cultured at 26°C in Liver Infusion Tryptone (LIT) medium supplemented with 10% fetal bovine serum (Internegocios). Primary cultures of human dermic fibroblasts were performed at 37°C in DMEN medium (Sigma) supplemented with 10% fetal bovine serum in a CO2 incubator at 5% CO2.
(§2) To determine the IC50 in parasites and human fibroblasts the protocol described by was followed. Briefly, a suspension of 2 x 10^6 parasites per mL^-1 or 5 x 10^3 fibroblasts per well were transferred into 96 well plates and different concentrations of the compounds were added. Plates were incubated under the corresponding culture conditions for 48 or 72 hours for L. mexicana or human fibroblasts, respectively. Thereafter, parasites plates were centrifuged prior to the elimination of the supernatant. Cell viability was measured by the modified MTT method, where cells were incubated with the MTT substrate at 0.2 mg x mL^-1 for 4 hours. Colored crystals formed were solubilized in DMSO and absorbance was measured at 570 nm. IC50 was obtained from a dose response curve using the software OriginLab Pro 6.0^©.

[2] = test system: Leishmania mexicana promastigotes; test: Alkalinization of acidocalcisomes, acridine orange; conditions: Erg-GTr 1.4 μM or Erg-GTr2 2.4 μM; nigericin 2 μM as control
Excerpt: Leishmania can store Ca^2+ in different compartments like the endoplasmic reticulum, the mitochondrion, and the acidocalcisomes. The major Ca^2+ reservoir is represented by this last organelle. In order to analyze if the [Ca^2+]cyt increase is due to its release from acidocalcisomes, parasites were charged with acridine orange and assayed fluorimetrically. Since acridine orange accumulates in acidic compartments, it allows detection of alkalinization.
To evaluate the effect of ergosterone coupled molecules on the Ca^2+ reservoir organelle acidocalcisome, parasites were stained with acridine orange as described previously. Briefly, 1 x 10^7 parasites were washed twice with loading buffer (20 mM Tris-HCl, 130 mM KCl, 1 mM MgCl2, and 2 mM KH2PO4) and incubated for 5 minutes with acridine orange (5 μM). Samples were washed twice, resuspended in 500 μL of the same buffer, and transferred to a stirred quartz cuvette at 29°C. Fluorescence (ex 488 nm and em 530 nm) was registered in a Hitachi F-7000 Spectrofluorimeter. Nigericin was used as control for acidocalcisome alkalinization.

[3] = test system: human dermic fibroblasts; test: Half-inhibitory concentration on human fibroblasts, modified MTT method; conditions: Fibroblast, 72 hours
Experimental: as §1, §2

[4] = test system: Leishmania mexicana promastigotes; test: Cytoplasmic Ca2+ level measurement with Fura 2-AM; conditions: Erg-GTr 1.4 μM or Erg-GTr2 2.3 μM; same result with extracellular Ca2+ sequestered by EGTA
Excerpt: In order to evaluate the possible effect of Erg-GTr and Erg-GTr2 on the cytoplasmic Ca^2+ concentration ([Ca^2+]cyt) in L. mexicana promastigotes, parasites were loaded with fura 2-AM, a fluorimetric Ca^2+ indicator which allows the measurement of intracellular changes in its concentration. Figure 7A represents the relative [Ca^2+]cyt, indicated as normalized OD340/380 ratio.
The fluorescent ratiometric Ca^2+ indicator Fura 2-AM was used to analyze intracellular Ca^2+ concentration. Promastigotes from stationary phase cultures were washed twice with PBS containing 1% glucose and incubated for 3 hours at 29°C with 4 μM Fura 2-AM, […], and 0.05% pluronic acid. Thereafter, parasites were washed twice, resuspended, and placed in a stirred quartz cuvette at 29°C. Fluorescence (ex 340 nm/380 nm and em 510 nm) was registered in a Hitachi F-7000 Spectrofluorimeter. Digitonin and EGTA were used to obtain the maximum and minimum [Ca^2+] in the sample, respectively.

[5] = test system: Leishmania mexicana promastigotes; test: Mitochondrial membrane potential immediately after addition, rhodamine 123; conditions: Erg-GTr 1.4 μM or Erg-GTr2 2.3 μM
Experimental: As the Leishmania mitochondrion seems to be involved in [Ca^2+]cyt regulation and can also accumulate Ca^2+ [9], the effect of Erg-GTr and Erg-GTr2 was analyzed immediately after its addition to parasites preloaded with rhodamine 123.
Mitotracker CMX Red(Invitrogen) was used to determine the mitochondrial membrane potential (Ψmit) of treated parasites. After 6, 16, 24, and 48 hours treatment, cells were incubated in culture medium with 50 nM Mitotracker CMX Red for 30 minutes at 26°C in the dark. Thereafter, parasites were washed twice with PBS, resuspended in 1 mL buffer, and analyzed using a cytometer (Beckman Coulter). Parasites incubated with valinomycin (500 nM for 30 minutes) were used as positive control. To evaluate the effect of ergosterone coupled molecules on the mitochondrial membrane potential immediately after molecule addition we used the fluorophore rhodamine-123, a mitochondrion-specific cationic dye, which distributes across the inner mitochondrial membranes strictly according to their membrane potential, as described before. Briefly, 1 x 10^7 parasites were washed twice with rhodamine 123 loading buffer (20 mM Tris-HCl, 130 mM KCl, 1 mM MgCl2, and 2 mM KH2PO4) and incubated with 20 μM rhodamine 123 for 45 minutes at 29°C under agitation. […] Fluorescence (ex 488 nm and em 530 nm) was registered in a Hitachi F-7000 Spectrofluorimeter. […]

[6] = test system: Leishmania mexicana promastigotes; test: DNA content analysis with propidium iodide (cell cycle, SubG1); conditions: 1.4 μM Erg-GTr or 2.3 μM Erg-GTr2, 48 hours
Experimental: In order to analyze if Erg-GTr molecules influence the normal cell cycle distribution, the DNA content of treated cells was evaluated using propidium iodide.
Figure 4 FIGURE 4: Analysis of the DNA content in L. mexicana promastigotes. Treated (1.4 μM Erg-GTr or 2.3 μM Erg-GTr2) or control cells (DMSO) were harvested at different time points and prepared for determination of DNA content. Acquisition was performed in arithmetic scale to obtain G1 and G2/M peaks and in logarithmic scale to earn the subG1 peak. (A) Percentage of cells in the different phases of the cell cycle after 24 and 48 hours treatment. (B) SubG1 peak in percentage after 16, 24 and 48 hours drug contact. Quantification was carried out using the WinMDI software. The bars represent the mean+/-S.D. of three individual cultures measured at each time point.
Propidium iodide was used to determinate the DNA content in parasites after treatment. 1 x 10^6 parasites were washed with PBS and resuspended in 100 μL lysis buffer (7.7 mM Na2HPO4, 2.3 mM KH2PO4) containing 6 μM digitonin. Samples were incubated at 4°C for 30 minutes. Finally, 400 μL staining buffer (20 μg/mL propidium iodide in PBS) was added to each sample. Samples were kept on ice in the dark until their analysis in the cytometer (Beckman Coulter).

**Q.** With `CC(C)C(C)C=CC(C)C1CCC2C3=CC(=NNC(=O)n4cnnc4)C4(O)CC(=O)CCC4(C)C3CCC21C` (stereo not shown) [Erg-GTr, [1,2,4]triazole-4-carboxylic acid [5-hydroxy-10,13-dimethyl-3-oxo-17-(1,4,5-trimethyl-hex-2-enyl)-1,2,3,4,5,9,10,11,12,13,14,15,16,17-tetradecahydro-cyclopenta[a]phenanthren-6-ylidene]-hydrazide] as the molecule, how does the IC50 ([1]; Leishmania mexicana, 48 h, read-out: IC50 on L. mexicana promastigotes) read?
**A.** 1.4 ± 0.4 µM

**Q.** What about the Selectivity index ([1]; promastigotes compared to human dermic fibroblasts) of the same molecule?
**A.** 9.8

**Q.** And the “acridine orange fluorescence (acidocalcisome alkalinization)” value [2]?
**A.** rapid fluorescence increase

**Q.** And the IC50 [3]?
**A.** 13.7 ± 1.9 µM

**Q.** And the “effect on cytoplasmic Ca2+ concentration ([Ca2+]cyt)” value [4]?
**A.** rapid increase

**Q.** What about the “rhodamine 123 fluorescence (depolarization of mitochondrial membrane potential)” value [5] of the same molecule?
**A.** slow fluorescence increase

**Q.** What about the “cell cycle arrest in the G2/M phase” value [6] of the same molecule?
**A.** moderate

Source: article PMC5354587, “Ergosterone-coupled Triazol molecules trigger mitochondrial dysfunction, oxidative stress, and acidocalcisomal Ca^2+ release in Leishmania mexicana promastigotes” (Microbial Cell, 2015)
